In patent publication US10376520B2, “Methods for the treatment of cardiovascular disorders” (Galapagos NV, priority 2015, dated 2019):

System: RA patients
Assay: Total cholesterol determination, Study 1 (RA patients with inadequate response to methotrexate, add-on to MTX)
Type: in vivo, human
Conditions: for [total cholesterol] Mean CFB / [Total cholesterol] Median CFB: Study 1 24 weeks results; for [total cholesterol] Mean percentage CFB - 24 weeks results: continued 25 mg b.i.d (N = 69)
Description: Double-blind, placebo-controlled add on study in subjects with moderately to severely active RA who have an inadequate response to methotrexate (MTX) (oral or parenteral).
595 subjects randomized to one of 6 dose regimens of Compound 1 (dosed as a [Compound 1:HCl:3H2O]) (3 dose levels administered either once or twice daily) or placebo on top of each subject's stable dose of MTX.
Compound 1 (dosed as a [Compound 1:HCl:3H2O]) is dosed for twelve weeks once daily (q.d.) (50 mg, 100 mg or 200 mg) or twice daily (b.i.d.) (25 mg, 50 mg or 100 mg); or placebo.
At Week 12, the subjects on placebo who have not achieved 20% improvement in swollen joint count (SJC66) and tender joint count (TJC68) are re-randomized automatically to receive Compound 1 (dosed as a [Compound 1:HCl:3H2O]) either at 100 mg q.d. or 50 mg b.i.d. doses in a blinded fashion; subjects on 50 mg q.d. who have not achieved 20% improvement in SJC66 and TJC68 will be assigned to 100 mg q.d. and subjects on 25 mg b.i.d. that have not achieved a 20% improvement in SJC66 and TJC68 will be assigned to 50 mg b.i.d. Subjects who switch treatment at week 12 are handled as if they discontinued at week 12 for the purpose of statistical analysis, whereas subjects in the other groups will maintain their randomized treatment until Week 24.
This method is based on the determination of Δ^4 cholestenone after enzymatic cleavage of the cholesterol ester by cholesterol esterase, conversion of cholesterol by cholesterol oxidase, and subsequent measurement by the Trinder reaction of the hydrogen peroxide formed (Allain et al., 1974).
Cholesterol esters are cleaved by the action of cholesterol esterase to yield free cholesterol and fatty acids. Cholesterol oxidase then catalyzes the oxidation of cholesterol to cholest-4-en-3-one and hydrogen peroxide. In the presence of peroxidase, the hydrogen peroxide formed effects the oxidative coupling of phenol and 4-aminophenazone to form a red quinone-imine dye. The color intensity of the dye formed is directly proportional to the cholesterol concentration. It is determined by measuring the increase in absorbance.
Human serum and plasma samples cholesterol determination was done on a Roche/Hitachi Cobas c 701/702 system which automatically calculate the analyte concentration of each sample.

[1] = placebo switched to 50 mg b.i.d at week 12, week 16
[2] = placebo switched to 50 mg b.i.d at week 12, week 20
[3] = placebo switched to 50 mg b.i.d at week 12, week 24

O=C(Nc1nc2cccc(-c3ccc(CN4CCS(=O)(=O)CC4)cc3)n2n1)C1CC1 [Compound 1, cyclopropanecarboxylic acid {5-[4-(1,1-dioxo-thiomorpholin-4-ylmethyl)-phenyl]-[1,2,4]triazolo[1,5-a]pyridin-2yl}-amide]
[total cholesterol] Mean CFB (continued 100 mg b.i.d., week 2): 0.36 mmol/L | [total cholesterol] Mean CFB (continued 100 mg b.i.d., week 4): 0.43 mmol/L | [total cholesterol] Mean CFB (continued 100 mg b.i.d., week 8): 0.64 mmol/L | [total cholesterol] Mean CFB (continued 100 mg b.i.d., week 12): 0.64 mmol/L | [total cholesterol] Mean CFB (continued 100 mg b.i.d., week 16): 0.56 mmol/L | [total cholesterol] Mean CFB (continued 100 mg b.i.d., week 20): 0.54 mmol/L | [total cholesterol] Mean CFB (continued 100 mg b.i.d., week 24): 0.66 mmol/L | [Total cholesterol] Median CFB (continued 100 mg q.d., week 1): 0.14 mmol/L | [total cholesterol] Mean CFB (continued 100 mg q.d., week 1): 0.15 mmol/L | [Total cholesterol] Median CFB (continued 100 mg q.d., week 2): 0.06 mmol/L | [total cholesterol] Mean CFB (continued 100 mg q.d., week 2): 0.10 mmol/L | [Total cholesterol] Median CFB (continued 100 mg q.d., week 4): 0.25 mmol/L | [total cholesterol] Mean CFB (continued 100 mg q.d., week 4): 0.23 mmol/L | [Total cholesterol] Median CFB (continued 100 mg q.d., week 8): 0.09 mmol/L | [total cholesterol] Mean CFB (continued 100 mg q.d., week 8): 0.14 mmol/L | [Total cholesterol] Median CFB (continued 100 mg q.d., week 12): 0.30 mmol/L | [total cholesterol] Mean CFB (continued 100 mg q.d., week 12): 0.23 mmol/L | [Total cholesterol] Median CFB (continued 100 mg q.d., week 16): 0.00 mmol/L | [total cholesterol] Mean CFB (continued 100 mg q.d., week 16): 0.06 mmol/L | [Total cholesterol] Median CFB (continued 100 mg q.d., week 20): 0.17 mmol/L | [total cholesterol] Mean CFB (continued 100 mg q.d., week 20): 0.13 mmol/L | [Total cholesterol] Median CFB (continued 100 mg q.d., week 24): 0.30 mmol/L | [total cholesterol] Mean CFB (continued 100 mg q.d., week 24): 0.21 mmol/L | [total cholesterol] Mean CFB (continued 200 mg q.d., week 1): 0.26 mmol/L | [total cholesterol] Mean CFB (continued 200 mg q.d., week 2): 0.29 mmol/L | [total cholesterol] Mean CFB (continued 200 mg q.d., week 4): 0.37 mmol/L | [total cholesterol] Mean CFB (continued 200 mg q.d., week 8): 0.44 mmol/L | [total cholesterol] Mean CFB (continued 200 mg q.d., week 12): 0.46 mmol/L | [total cholesterol] Mean CFB (continued 200 mg q.d., week 16): 0.37 mmol/L | [total cholesterol] Mean CFB (continued 200 mg q.d., week 20): 0.43 mmol/L | [Total cholesterol] Median CFB (continued 200 mg q.d., week 24): 0.37 mmol/L | [total cholesterol] Mean CFB (continued 200 mg q.d., week 24): 0.39 mmol/L | [total cholesterol] Mean CFB (increased from 25 mg b.i.d. to 50 mg b.i.d at 12 weeks, week 1): -0.05 mmol/L | [total cholesterol] Mean CFB (increased from 25 mg b.i.d. to 50 mg b.i.d at 12 weeks, week 2): -0.01 mmol/L | [total cholesterol] Mean CFB (increased from 25 mg b.i.d. to 50 mg b.i.d at 12 weeks, week 4): -0.26 mmol/L | [total cholesterol] Mean CFB (increased from 25 mg b.i.d. to 50 mg b.i.d at 12 weeks, week 8): -0.30 mmol/L | [total cholesterol] Mean CFB (increased from 25 mg b.i.d. to 50 mg b.i.d at 12 weeks, week 12): -0.13 mmol/L | [total cholesterol] Mean CFB (increased from 25 mg b.i.d. to 50 mg b.i.d at 12 weeks, week 16): 0.08 mmol/L | [total cholesterol] Mean CFB (increased from 25 mg b.i.d. to 50 mg b.i.d at 12 weeks, week 20): -0.44 mmol/L | [total cholesterol] Mean CFB (increased from 25 mg b.i.d. to 50 mg b.i.d at 12 weeks, week 24): -0.09 mmol/L | [total cholesterol] Mean CFB (increased from 50 mg q.d. to 100 mg q.d. at 12 weeks, week 1): 0.05 mmol/L | [total cholesterol] Mean CFB (increased from 50 mg q.d. to 100 mg q.d. at 12 weeks, week 2): 0.26 mmol/L | [total cholesterol] Mean CFB (increased from 50 mg q.d. to 100 mg q.d. at 12 weeks, week 4): 0.11 mmol/L | [total cholesterol] Mean CFB (increased from 50 mg q.d. to 100 mg q.d. at 12 weeks, week 8): 0.10 mmol/L | [total cholesterol] Mean CFB (increased from 50 mg q.d. to 100 mg q.d. at 12 weeks, week 12): 0.10 mmol/L | [total cholesterol] Mean CFB (increased from 50 mg q.d. to 100 mg q.d. at 12 weeks, week 16): 0.37 mmol/L | [total cholesterol] Mean CFB (increased from 50 mg q.d. to 100 mg q.d. at 12 weeks, week 20): 0.34 mmol/L | [total cholesterol] Mean CFB (increased from 50 mg q.d. to 100 mg q.d. at 12 weeks, week 24): 0.25 mmol/L | [Total cholesterol] Median CFB [1]: 0.25 mmol/L | [total cholesterol] Mean CFB [1]: 0.08 mmol/L | [Total cholesterol] Median CFB [2]: 0.25 mmol/L | [total cholesterol] Mean CFB [2]: 0.18 mmol/L | [Total cholesterol] Median CFB [3]: 0.36 mmol/L | [total cholesterol] Mean CFB [3]: 0.06 mmol/L | [total cholesterol] Mean CFB (placebo switched to 100 mg q.d. at week 12, week 16): -0.16 mmol/L | [total cholesterol] Mean CFB (placebo switched to 100 mg q.d. at week 12, week 20): -0.17 mmol/L | [total cholesterol] Mean CFB (placebo switched to 100 mg q.d. at week 12, week 24): -0.26 mmol/L | [total cholesterol] Mean percentage CFB - 24 weeks results (week 1): 2.56% | [total cholesterol] Mean percentage CFB - 24 weeks results (week 2): 3.22% | [total cholesterol] Mean percentage CFB - 24 weeks results (week 4): 4.05% | [total cholesterol] Mean percentage CFB - 24 weeks results (week 8): 4.25%
